According to patent US10934267B2, “Alpha-tea salt forms: compositions and uses for treating disease” (Research Development Foundation, priority 2013, dated 2021):

Assays:
[1] = cited from earlier work; for Class (safety and pharmaceutical acceptability of the counter-ions): salt forming base; for Counter Ion Class: Table 6 summary
[2] = Stability of stressed salts and free acid by HPLC total area normalization; settings: for Stability compared to free acid: Table 6 summary, in solution
Method: The scaled up salts and free acid were challenged by heat (solids stored at 25 and 60° C. for 1 week), oxidation (solids stored in oxygen headspace at 25° C. for 1 week), light (solids exposed≥1×ICH International Conference on Harmonization of Technical Requirements for Registration of Pharmaceuticals for Human Use UV confirmatory conditions), and solutions (HPLC diluent-methanol) at 25 and 40° C. for 1 week.
These samples were analyzed, along with unstressed controls, by HPLC to characterize their stability.
Salt candidates were analyzed by total area normalization (TAN). The samples were dissolved in methanol at a concentration of 0.8 mg/mL.
The three salts (lysine, arginine, and tris) were challenged using heat (solids stored at 25 and 60° C. for 1 week), oxidation (solids stored in oxygen headspace at 25° C. for 1 week), light (UV source under ICH confirmatory conditions>200 Whr/m^2), and solutions (in HPLC diluent) at 25 and 40° C. for 1 week. Stressed samples were analyzed using HPLC to determine their impurity profiles.

[3] = Hygroscopicity - Dynamic Vapor Sorption (DVS); settings: for Hydration properties DVS: hydrate formed: Table 6 summary; for DVS total weight gain: at 95% RH, 25° C.
Method: DVS is a gravimetric screening technique that measures how quickly and how much of a solvent (water) is adsorbed by a sample. The relative humidity or vapor concentration surrounding the sample is varied while the change in mass of the sample is measured. […] The mass values at each relative humidity step are used to generate the isotherm. Isotherms are divided in two components: sorption for increasing humidity steps and desorption for decreasing humidity steps.
Samples were analyzed using a TA Q2000 automated dynamic vapor sorption analyzer. The samples were dried at 40° C. for 5 hours and then cooled to 25° C. with a dry nitrogen purge over them until they no longer lost mass at 0% RH.

[4] = Static humidity experiments, gravimetric weight change; type: physicochemical
Excerpt: Formation of hydrates can be a very slow kinetic process. A second approach to identify hydrate formation is performing static humidity experiments and monitor gravimetrically for weight change.

[5] = salt forming base; cited from earlier work
4T1 mammary tumor = assay: Anti-tumor efficacy in 4T1 mouse model of metastatic mammary cancer; type: in vivo, BALB/c mice; settings: diet with 3 g/kg chow (0.3% w/w), started 9 days post tumor injection
Excerpt: The lysine salt was incorporated into standard mouse chow at an amount of 3 g/kg chow (0.3% w/w) by Harlan Teklad, Madison Wis. Half of the mice were placed on an α-TEA-Lys diet after the tumors were established (9 days post tumor injection.) and the rest placed on an analogous nutrient diet without α-TEA-Lys which served as the control group.

physchem = settings: buffered water, pH 4, aqueous buffer, thermodynamic from solid
Method: Milligram size (2 mg) quantities of each sample were placed into a vial. Buffered water (pH 4, 7, and 10) was added and the vials were stirred for a few minutes, followed by visual observation for remaining solids. The solvent was incrementally added until the solids were dissolved, or a maximum volume of solvent (10 mL) was added and the experiment was terminated.

[6] = Oxidation Ambient (oxygen headspace, 25° C., 1 week)
[7] = Photo Stability Exposed (UV, ICH confirmatory conditions)
[8] = Solid State Ambient (25° C., 1 week)
[9] = Solution 40° C. Methanol, 1 week
[10] = Solution Ambient Methanol, 1 week

SMILES | Class (safety and pharmaceutical acceptability of the counter-ions) [1] | HLPC Total Area Normalization - Area % Purity [2, 6] [Area %] | HLPC Total Area Normalization - Area % Purity ([2]; Photo Stability Dark Control) [Area %] | HLPC Total Area Normalization - Area % Purity [2, 7] [Area %] | HLPC Total Area Normalization - Area % Purity ([2]; Solid State 60° C., 1 week) [Area %] | HLPC Total Area Normalization - Area % Purity [2, 8] [Area %] | HLPC Total Area Normalization - Area % Purity [2, 9] [Area %] | HLPC Total Area Normalization - Area % Purity [2, 10] [Area %] | other results
NCCCC[C@H](N)C(=O)O [L-Lysine] | I | – | – | – | – | – | – | – | –
[Ca+2].[OH-].[OH-] [calcium hydroxide] | I | – | – | – | – | – | – | – | –
Cc1c(C)c2c(c(C)c1OCC(=O)O)CCC(C)(CCCC(C)CCCC(C)CCCC(C)C)O2.NC(CO)(CO)CO (stereo not drawn) [α-TEA tris salt] | – | 98.5 | 98.2 | 98.7 | 98.4 | 98.6 | 98.2 | 98.5 | Stability compared to free acid [2]: more stable; Hydration properties DVS: hydrate formed [3]: hemihydrate; Hydration properties Static 75% RH 30 Days, weight gain ([4]; 75% RH): 4.0 wt %; static humidity weight gain ([4]; 75% RH, 33 days): 4.0%
[K+].[OH-] [potassium hydroxide] | I | – | – | – | – | – | – | – | –
[Mg+2].[OH-].[OH-] [magnesium hydroxide] | I | – | – | – | – | – | – | – | –
CN(C)CCO [deanol, N,N-dimethylethanolamine, N,N-dimethylethanolamine] | – | – | – | – | – | – | – | – | pKa [5]: 8.8
Cc1c(C)c2c(c(C)c1OCC(=O)O)CCC(C)(CCCC(C)CCCC(C)CCCC(C)C)O2.NCCCC[C@H](N)C(=O)O (stereo not drawn) [α-TEA lysine salt] | – | 98.8 | 98.7 | 98.8 | 98.7 | 98.8 | 98.2 | 98.8 | Stability compared to free acid [2]: more stable; Counter Ion Class [1]: I; Hydration properties DVS: hydrate formed [3]: hydrate; DVS total weight gain [3]: about 12%; DVS residual weight after desorption cycle ([3]; corresponds to a putative hydrate): 2 weight %; average tumor size compared to control diet (4T1 mammary tumor): significant decrease in average tumor size; complete tumor regression, share of the mice treated (4T1 mammary tumor): about 25%; survival compared to control diet (Kaplan-Meier) (4T1 mammary tumor): increased survival; Hydration properties Static 75% RH 30 Days, weight gain ([4]; 75% RH): 0.6 wt% wt %; static humidity weight gain ([4]; 75% RH, 33 days): 0.6%; static humidity weight gain ([4]; 84% RH, 9 days): 1.8%
Cc1c(C)c2c(c(C)c1OCC(=O)O)CCC(C)(CCCC(C)CCCC(C)CCCC(C)C)O2.N=C(N)NCCC[C@H](N)C(=O)O (stereo not drawn) [α-TEA arginine salt] | – | 98.4 | 97.9 | 98.5 | 98.6 | 98.6 | 98.2 | 98.4 | Stability compared to free acid [2]: more stable; Counter Ion Class [1]: I; Hydration properties DVS: hydrate formed [3]: hemihydrate; Hydration properties Static 75% RH 30 Days, weight gain ([4]; 75% RH): 0.7 wt %; static humidity weight gain ([4]; 75% RH, 33 days): 0.7%; static humidity weight gain ([4]; 84% RH, 9 days): 2.3%
N=C(N)NCCC[C@H](N)C(=O)O [L-Arginine] | I | – | – | – | – | – | – | – | –
Cc1c(C)c2c(c(C)c1OCC(=O)O)CC[C@@](C)(CCC[C@H](C)CCC[C@H](C)CCCC(C)C)O2 [α-TEA free acid, α-tocopheryloxyacetic acid, reference compound] | – | 97.8 | 97.7 | 98.2 | 98.0 | 97.8 | 94.6 | 96.0 | solubility (physchem): < 200 µg/mL; DVS conclusion on hydrate formation / deliquescence ([3]; 0 to 95% RH): does not form hydrates or exhibit deliquescence; DVS total weight gain [3]: about 0.2%
C[N+](C)(C)CCO [Choline] | I | – | – | – | – | – | – | – | pKa [5]: >11
